Data reported in ChEMBL document CHEMBL1148869, “Synthesis and SAR studies of potent imidazopyridine anticoccidial agents” (Bioorg Med Chem Lett, 2007).
pIC50: −log10 of the molar value.

Columns and labels:
[1] = target: cGMP-dependent protein kinase (Eimeria tenella, UniProt Q8MMZ8); test: Inhibition of Et-PKG
[2] = system: Eimeria tenella; test: Anticoccidial activity against Eimeria tenella infected Chick assessed as reduction in oocyst production at 25ppm after 7 days; format: functional; set-up: scale not given: the % may be the effect or the level left
[3] = system: Eimeria acervulina; test: Anticoccidial activity against Eimeria acervulina infected Chick assessed as reduction in oocyst production at 25 ppm after 7 days; format: functional; set-up: scale not given: the % may be the effect or the level left
[4] = system: Eimeria acervulina; test: Anticoccidial activity against Eimeria acervulina infected Chick assessed as reduction in oocyst production at 12.5 ppm after 7 days; format: functional; set-up: scale not given: the % may be the effect or the level left
[5] = system: Eimeria tenella; test: Anticoccidial activity against Eimeria tenella infected Chick assessed as reduction in oocyst production at 12.5 ppm after 7 days; format: functional; set-up: scale not given: the % may be the effect or the level left
[6] = system: Eimeria acervulina; test: Anticoccidial activity against Eimeria acervulina infected Chick assessed as reduction in oocyst production at 50 ppm after 7 days; format: functional; set-up: scale not given: the % may be the effect or the level left
[7] = system: Eimeria tenella; test: Anticoccidial activity against Eimeria tenella infected Chick assessed as reduction in oocyst production at 50 ppm after 7 days; format: functional; set-up: scale not given: the % may be the effect or the level left

Sequence of cGMP-dependent protein kinase (Q8MMZ8 whole entry): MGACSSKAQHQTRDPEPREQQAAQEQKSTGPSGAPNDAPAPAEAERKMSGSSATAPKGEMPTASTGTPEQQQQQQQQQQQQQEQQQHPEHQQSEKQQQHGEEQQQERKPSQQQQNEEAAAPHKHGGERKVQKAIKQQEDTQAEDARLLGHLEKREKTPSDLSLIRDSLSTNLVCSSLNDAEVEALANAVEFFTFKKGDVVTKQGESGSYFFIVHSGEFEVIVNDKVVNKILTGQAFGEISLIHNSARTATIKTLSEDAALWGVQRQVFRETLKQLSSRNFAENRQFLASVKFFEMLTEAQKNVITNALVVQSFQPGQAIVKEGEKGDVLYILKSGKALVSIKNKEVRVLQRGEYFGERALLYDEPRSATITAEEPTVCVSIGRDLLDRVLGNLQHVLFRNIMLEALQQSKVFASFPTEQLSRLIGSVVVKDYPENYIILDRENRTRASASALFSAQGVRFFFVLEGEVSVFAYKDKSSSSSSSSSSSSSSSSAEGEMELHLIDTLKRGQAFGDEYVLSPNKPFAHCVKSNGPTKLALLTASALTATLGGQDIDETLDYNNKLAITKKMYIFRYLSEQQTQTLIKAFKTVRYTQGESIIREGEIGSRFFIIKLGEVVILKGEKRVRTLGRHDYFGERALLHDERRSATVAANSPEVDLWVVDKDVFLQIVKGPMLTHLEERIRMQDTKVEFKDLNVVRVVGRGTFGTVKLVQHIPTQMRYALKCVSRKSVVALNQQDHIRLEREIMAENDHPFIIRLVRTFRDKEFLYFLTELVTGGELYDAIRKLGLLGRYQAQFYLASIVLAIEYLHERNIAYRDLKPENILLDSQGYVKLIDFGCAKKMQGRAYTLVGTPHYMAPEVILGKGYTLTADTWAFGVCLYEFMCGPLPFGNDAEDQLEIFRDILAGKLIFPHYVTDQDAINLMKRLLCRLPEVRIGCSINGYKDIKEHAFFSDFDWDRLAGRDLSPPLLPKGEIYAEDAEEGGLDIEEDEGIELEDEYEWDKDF

pIC50 [1] | Structure (SMILES) | Activity [2] | Activity [3] | Activity [4] | Activity [5] | Activity [6] | Activity [7]
9.82 | C[C@H](Nc1nccc(-c2c(-c3ccc(F)cc3)nc3cc(CN(C)CCNS(C)(=O)=O)ccn23)n1)c1ccccc1 | >80% | <50% | – | – | – | –
10.22 | CN(C)Cc1ccn2c(-c3ccnc(Nc4ccccc4)n3)c(-c3ccc(F)cc3)nc2c1 | – | – | <50% | >80% | – | –
9.22 | CC(C)N(C)Cc1ccn2c(-c3ccnc(NCC(C)(C)C)n3)c(-c3ccc(F)cc3)nc2c1 | <50% | <50% | – | – | – | –
9.51 | CN(C)Cc1ccn2c(-c3ccnc(NC(C)(C)C)n3)c(-c3ccc(F)cc3)nc2c1 | – | – | – | – | – | –
9.70 | CC(C)Nc1nccc(-c2c(-c3ccc(F)cc3)nc3cc(CN(C)C)ccn23)n1 | >80% | >80% | – | – | – | –
9.07 | CC(C)Nc1nccc(-c2c(-c3ccc(F)cc3)nc3cc(CN4CCC4)ccn23)n1 | – | – | – | – | – | –
9.41 | C[C@H](Nc1nccc(-c2c(-c3ccc(F)cc3)nc3cc(CN(C)CC(=O)N4CCCC4)ccn23)n1)c1ccccc1 | – | – | – | – | <50% | >80%
10.00 | C[C@H](Nc1nccc(-c2c(-c3ccc(F)cc3)nc3cc(CN(C)CCN4CCC4)ccn23)n1)c1ccccc1 | – | – | – | – | <50% | >80%
10.15 | C[C@H](Nc1nccc(-c2c(-c3ccc(F)cc3)nc3cc(CN(C)CCCN(C)C)ccn23)n1)c1ccccc1 | – | – | 50% | <50% | – | –
9.24 | C[C@H](Nc1nccc(-c2c(-c3ccc(F)cc3)nc3cc(CN(C)CC(=O)N4CCC4)ccn23)n1)c1ccccc1 | – | – | – | – | <50% | <50%
9.96 | C[C@H](Nc1nccc(-c2c(-c3ccc(F)cc3)nc3cc(CN(C)CCO)ccn23)n1)c1ccccc1 | >80% | <50% | – | – | – | –
– | CN(C)Cc1ccn2c(-c3ccnc(NCc4ccccc4)n3)c(-c3ccc(F)cc3)nc2c1 | >80% | >80% | – | – | – | –
9.96 | CC(C)N(C)Cc1ccn2c(-c3ccnc(N[C@@H](C)c4ccccc4)n3)c(-c3ccc(F)cc3)nc2c1 | <50% | >80% | – | – | – | –
8.55 | CC(C)N(C)Cc1ccn2c(-c3ccnc(NC(C)(C)C)n3)c(-c3ccc(F)cc3)nc2c1 | – | – | – | – | – | –
8.89 | CC(C)Nc1nccc(-c2c(-c3ccc(F)cc3)nc3cc(CN(C)C(C)C)ccn23)n1 | – | – | – | – | – | –
9.59 | C[C@H](Nc1nccc(-c2c(-c3ccc(F)cc3)nc3cc(CN(C)[C@@H](C)C(=O)N(C)C)ccn23)n1)c1ccccc1 | 50% | 50% | – | – | – | –
9.54 | CCN(C)Cc1ccn2c(-c3ccnc(NCC(C)(C)C)n3)c(-c3ccc(F)cc3)nc2c1 | >80% | <50% | – | – | – | –
9.35 | CC(C)(C)CNc1nccc(-c2c(-c3ccc(F)cc3)nc3cc(CN4CCC4)ccn23)n1 | <0% | <0% | – | – | – | –
9.82 | C[C@H](Nc1nccc(-c2c(-c3ccc(F)cc3)nc3cc(CN(C)C(CO)CO)ccn23)n1)c1ccccc1 | – | – | – | – | <50% | >80%
8.25 | CCOC(=O)N1CCN(Cc2ccn3c(-c4ccnc(N[C@@H](C)c5ccccc5)n4)c(-c4ccc(F)cc4)nc3c2)CC1 | – | – | – | – | <50% | <50%
9.89 | CCN(C)Cc1ccn2c(-c3ccnc(N[C@@H](C)c4ccccc4)n3)c(-c3ccc(F)cc3)nc2c1 | – | – | – | – | >80% | >80%
10.30 | CC(C)NCc1ccn2c(-c3ccnc(N[C@@H](C)c4ccccc4)n3)c(-c3ccc(F)cc3)nc2c1 | >80% | >80% | – | – | – | –
9.57 | C[C@H](Nc1nccc(-c2c(-c3ccc(F)cc3)nc3cc(CN(C)CC4CCCO4)ccn23)n1)c1ccccc1 (stereo partly drawn) | >80% | <50% | – | – | – | –
9.55 | CN(C)Cc1ccn2c(-c3ccnc(NCC(C)(C)C)n3)c(-c3ccc(F)cc3)nc2c1 | >80% | <50% | – | – | – | –
